From ChEMBL document CHEMBL4311943, “3-[(1S,2S,3R)-2,3-Difluoro-1-hydroxy-7-methylsulfonylindan-4-yl]oxy-5-fluorobenzonitrile (PT2977), a Hypoxia-Inducible Factor 2α (HIF-2α) Inhibitor for the Treatment of Clear Cell Renal Cell Carcinoma” (J Med Chem, 2019)
Activity calls are given as the source filed them. The calls are words filed in the database; no cut-off is given here.

Legend:
[1] = Clearance in monkey at 1 mg/kg, iv by UPLC-MS analysis; type: ADME, organism-based, Macaca mulatta; conditions: rhesus monkey, in vivo
[2] = target: Endothelin receptor type B (Homo sapiens) (UniProt P24530); test: Activity at human ETB receptor at 10 uM
[3] = Cmax in patient with advanced solid tumor at 120 mg, po administered once daily measured on day 15; type: ADME, organism-based; design: dose 120 mg, route oral; conditions: human, in vivo
[4] = target: Calcium/calmodulin-dependent protein kinase type II subunit delta (Homo sapiens) (UniProt Q13557); test: Activity at human CAMK2D at 10 uM
[5] = target: Protein kinase C beta type (Homo sapiens) (UniProt P05771); test: Activity at human PKCbeta1 at 10 uM
Chain of Protein kinase C beta type (Homo sapiens) (P05771 2-671 limits assumed): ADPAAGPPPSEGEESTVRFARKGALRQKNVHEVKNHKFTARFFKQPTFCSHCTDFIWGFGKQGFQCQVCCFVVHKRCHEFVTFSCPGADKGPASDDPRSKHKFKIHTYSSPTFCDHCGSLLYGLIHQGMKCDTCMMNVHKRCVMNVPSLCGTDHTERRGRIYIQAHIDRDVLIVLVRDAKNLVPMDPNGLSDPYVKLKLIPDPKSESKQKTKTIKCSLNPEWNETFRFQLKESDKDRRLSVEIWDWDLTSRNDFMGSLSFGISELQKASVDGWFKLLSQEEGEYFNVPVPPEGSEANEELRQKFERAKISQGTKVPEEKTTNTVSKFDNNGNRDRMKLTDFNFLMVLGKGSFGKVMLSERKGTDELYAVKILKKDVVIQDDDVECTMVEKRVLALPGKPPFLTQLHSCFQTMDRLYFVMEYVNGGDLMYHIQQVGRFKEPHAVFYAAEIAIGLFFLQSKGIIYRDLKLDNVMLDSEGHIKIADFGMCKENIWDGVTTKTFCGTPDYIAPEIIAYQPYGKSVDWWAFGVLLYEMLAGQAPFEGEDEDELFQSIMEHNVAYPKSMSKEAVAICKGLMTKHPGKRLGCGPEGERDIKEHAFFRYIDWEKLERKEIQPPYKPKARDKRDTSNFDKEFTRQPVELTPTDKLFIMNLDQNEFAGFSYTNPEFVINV

[6] = target: Mitogen-activated protein kinase 1 (Homo sapiens) (UniProt P28482); test: Activity at human MAPK2 at 10 uM
Chain of Mitogen-activated protein kinase 1 (Homo sapiens) (P28482 whole entry): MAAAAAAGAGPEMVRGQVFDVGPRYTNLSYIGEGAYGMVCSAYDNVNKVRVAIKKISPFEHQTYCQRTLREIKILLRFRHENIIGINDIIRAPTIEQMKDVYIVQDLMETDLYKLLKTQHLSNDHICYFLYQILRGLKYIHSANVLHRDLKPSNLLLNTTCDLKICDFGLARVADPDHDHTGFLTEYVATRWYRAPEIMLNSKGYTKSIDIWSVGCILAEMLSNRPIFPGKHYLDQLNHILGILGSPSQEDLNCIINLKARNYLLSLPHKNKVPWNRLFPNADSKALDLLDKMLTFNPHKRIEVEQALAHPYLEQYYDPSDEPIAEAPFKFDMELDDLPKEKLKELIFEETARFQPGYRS

[7] = target: Protein kinase C epsilon type (Homo sapiens) (UniProt Q02156); test: Activity at human PKCepsilon at 10 uM
[8] = AUClast in patient with advanced solid tumor at 40 mg, po administered once daily measured on day 15; type: ADME, organism-based; design: dose 40 mg, time 0 - last, route oral; conditions: human, in vivo
[9] = target: Serine/threonine-protein kinase STK11 (Homo sapiens) (UniProt Q15831); test: Activity at human LKB1 at 10 uM
Chain of Serine/threonine-protein kinase STK11 (Homo sapiens) (Q15831 whole entry): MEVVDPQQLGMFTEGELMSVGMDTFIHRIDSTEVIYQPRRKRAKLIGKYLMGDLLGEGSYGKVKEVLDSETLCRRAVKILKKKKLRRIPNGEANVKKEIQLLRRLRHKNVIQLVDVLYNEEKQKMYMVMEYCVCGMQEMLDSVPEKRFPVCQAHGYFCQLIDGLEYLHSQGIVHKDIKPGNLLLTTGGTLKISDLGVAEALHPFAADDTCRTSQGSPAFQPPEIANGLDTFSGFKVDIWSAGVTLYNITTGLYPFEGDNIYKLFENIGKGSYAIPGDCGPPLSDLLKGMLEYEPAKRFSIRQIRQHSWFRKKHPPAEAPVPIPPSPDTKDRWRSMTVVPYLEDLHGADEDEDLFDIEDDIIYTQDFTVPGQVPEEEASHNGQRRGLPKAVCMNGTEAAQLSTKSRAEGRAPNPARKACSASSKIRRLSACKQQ

[10] = target: Substance-P receptor (Homo sapiens) (UniProt P25103); test: Activity at human NK1 receptor at 10 uM
[11] = target: 5-hydroxytryptamine receptor 2C (Homo sapiens) (UniProt P28335); test: Activity at human 5-HT2C receptor at 10 uM
[12] = target: Protein kinase C delta type (Homo sapiens) (UniProt Q05655); test: Activity at human PKCdelta at 10 uM
[13] = target: Orexin/Hypocretin receptor type 1 (Homo sapiens) (UniProt O43613); test: Activity at human OX1 receptor at 10 uM
[14] = target: Cyclin-dependent kinase 5/CDK5 activator 1 (Homo sapiens) (UniProt Q00535+Q15078); test: Activity at human CDK5/p25 at 10 uM; type: protein-complex assay
[15] = target: CDK3/Cyclin E (Homo sapiens) (UniProt P24864+Q00526); test: Activity at human CDK3/cyclinE at 10 uM; type: protein-complex assay
[16] = Volume of distribution at steady state in monkey at 1 mg/kg, iv by UPLC-MS analysis; type: ADME, organism-based, Macaca mulatta; conditions: rhesus monkey, in vivo, read-out: Vdss
[17] = Cmax in patient with advanced solid tumor at 20 mg, po administered once daily measured on day 15; type: ADME, organism-based; design: dose 20 mg, route oral; conditions: human, in vivo
[18] = target: Prostaglandin F2-alpha receptor (Homo sapiens) (UniProt P43088); test: Activity at human Prostanoid FP receptor at 10 uM
[19] = target: Histamine H1 receptor (Homo sapiens) (UniProt P35367); test: Activity at human H1 receptor at 10 uM
Cytochrome P450 3A4 = Cytochrome P450 3A4 (Homo sapiens, UniProt P08684); test: Inhibition of CYP3A4 in human liver microsomes up to 50 uM using testosterone as substrate measured after 10 mins in presence of NADPH by LC-MS/MS analysis; type: ADME
Chain of Cytochrome P450 3A4 (P08684 whole entry): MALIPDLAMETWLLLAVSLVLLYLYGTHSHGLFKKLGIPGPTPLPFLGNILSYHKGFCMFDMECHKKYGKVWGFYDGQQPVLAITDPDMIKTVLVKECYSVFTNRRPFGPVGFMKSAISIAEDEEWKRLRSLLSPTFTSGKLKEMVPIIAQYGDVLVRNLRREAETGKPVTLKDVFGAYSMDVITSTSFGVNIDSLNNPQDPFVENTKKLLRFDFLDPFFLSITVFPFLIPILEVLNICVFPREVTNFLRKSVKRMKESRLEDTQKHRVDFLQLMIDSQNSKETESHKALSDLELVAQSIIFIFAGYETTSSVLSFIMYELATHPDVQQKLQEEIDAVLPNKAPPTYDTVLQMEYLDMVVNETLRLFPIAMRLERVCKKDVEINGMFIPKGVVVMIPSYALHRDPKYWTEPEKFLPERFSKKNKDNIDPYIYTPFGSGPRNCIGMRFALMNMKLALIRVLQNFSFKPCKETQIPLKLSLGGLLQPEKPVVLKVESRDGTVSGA

[20] = target: Mu-type opioid receptor (Homo sapiens) (UniProt P35372); test: Activity at human mu opioid receptor at 10 uM
Chain of Mu-type opioid receptor (Homo sapiens) (P35372 whole entry): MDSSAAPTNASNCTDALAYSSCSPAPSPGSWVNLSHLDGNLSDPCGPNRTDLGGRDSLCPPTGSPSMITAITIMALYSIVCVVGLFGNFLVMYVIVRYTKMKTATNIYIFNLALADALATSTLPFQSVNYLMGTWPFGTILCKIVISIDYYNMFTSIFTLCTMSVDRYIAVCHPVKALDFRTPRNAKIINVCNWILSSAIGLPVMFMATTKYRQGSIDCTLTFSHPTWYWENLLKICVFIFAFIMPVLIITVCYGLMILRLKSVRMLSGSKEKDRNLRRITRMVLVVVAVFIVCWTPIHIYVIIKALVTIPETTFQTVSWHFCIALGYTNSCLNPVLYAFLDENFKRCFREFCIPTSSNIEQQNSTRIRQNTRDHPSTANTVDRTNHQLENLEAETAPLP

[21] = target: C-C chemokine receptor type 2 (Homo sapiens) (UniProt P41597); test: Activity at human CCR2B receptor at 10 uM
[22] = target: Neuromedin-K receptor (Homo sapiens) (UniProt P29371); test: Activity at human NK3 receptor at 10 uM
[23] = target: Neuropeptide Y receptor type 2 (Homo sapiens) (UniProt P49146); test: Activity at human NPY2 receptor at 10 uM
Chain of Neuropeptide Y receptor type 2 (Homo sapiens) (P49146 whole entry): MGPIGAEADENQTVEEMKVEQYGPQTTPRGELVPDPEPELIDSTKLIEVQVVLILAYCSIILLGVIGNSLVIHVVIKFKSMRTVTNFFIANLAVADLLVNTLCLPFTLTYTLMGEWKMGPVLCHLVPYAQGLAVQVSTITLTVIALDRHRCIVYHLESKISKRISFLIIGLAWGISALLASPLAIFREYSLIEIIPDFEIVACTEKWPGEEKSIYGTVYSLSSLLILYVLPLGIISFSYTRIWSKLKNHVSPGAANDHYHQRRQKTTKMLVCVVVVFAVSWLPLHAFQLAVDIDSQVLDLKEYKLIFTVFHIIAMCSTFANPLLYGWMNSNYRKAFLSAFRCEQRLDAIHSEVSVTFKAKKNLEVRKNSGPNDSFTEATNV

[24] = target: Protein kinase C beta type (Homo sapiens) (UniProt P05771); test: Activity at human PKCbeta2 at 10 uM
[25] = target: Beta-2 adrenergic receptor (Homo sapiens) (UniProt P07550); test: Activity at human beta2 receptor at 10 uM
[26] = target: Cysteinyl leukotriene receptor 1 (Homo sapiens) (UniProt Q9Y271); test: Activity at human CysLT1 receptor at 10 uM
Chain of Cysteinyl leukotriene receptor 1 (Homo sapiens) (Q9Y271 whole entry): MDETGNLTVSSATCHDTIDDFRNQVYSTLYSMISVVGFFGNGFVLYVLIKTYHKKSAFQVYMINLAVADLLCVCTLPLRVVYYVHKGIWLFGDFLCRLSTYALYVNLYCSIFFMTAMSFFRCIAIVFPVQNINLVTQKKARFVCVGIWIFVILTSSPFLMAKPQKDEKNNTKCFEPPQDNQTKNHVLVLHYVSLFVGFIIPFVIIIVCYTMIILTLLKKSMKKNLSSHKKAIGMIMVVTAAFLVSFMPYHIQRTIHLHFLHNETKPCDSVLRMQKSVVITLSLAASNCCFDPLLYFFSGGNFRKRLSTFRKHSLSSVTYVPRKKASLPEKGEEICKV

[27] = Half life in patient with advanced solid tumor at 160 mg, po administered once daily measured on day 15; type: ADME, organism-based; conditions: human, in vivo
[28] = target: Neurotensin receptor type 1 (Homo sapiens) (UniProt P30989); test: Activity at human NTR1 receptor at 10 uM
[29] = Plasma concentration in patient with advanced solid tumor at 40 mg, po administered once daily measured on day 15 after 24 hrs; type: ADME, organism-based; conditions: human
[30] = target: Melanocortin receptor 5 (Homo sapiens) (UniProt P33032); test: Activity at human MC5 receptor at 10 uM
[31] = target: Vasoactive intestinal polypeptide receptor 2 (Homo sapiens) (UniProt P41587); test: Activity at human VPAC2 at 10 uM
Chain of Vasoactive intestinal polypeptide receptor 2 (Homo sapiens) (P41587 whole entry): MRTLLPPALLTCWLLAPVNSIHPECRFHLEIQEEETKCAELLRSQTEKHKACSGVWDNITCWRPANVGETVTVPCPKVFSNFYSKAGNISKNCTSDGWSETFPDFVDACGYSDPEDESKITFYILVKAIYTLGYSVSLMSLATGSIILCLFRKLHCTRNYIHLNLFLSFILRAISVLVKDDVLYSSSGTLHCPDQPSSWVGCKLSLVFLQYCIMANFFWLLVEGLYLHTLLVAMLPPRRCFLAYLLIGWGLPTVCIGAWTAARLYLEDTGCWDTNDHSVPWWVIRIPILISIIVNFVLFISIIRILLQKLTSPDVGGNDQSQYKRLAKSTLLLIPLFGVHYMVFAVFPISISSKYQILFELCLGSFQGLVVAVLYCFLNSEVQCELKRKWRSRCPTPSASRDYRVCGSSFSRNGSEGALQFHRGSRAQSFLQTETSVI

[32] = target: Ribosomal protein S6 kinase beta-1 (Homo sapiens) (UniProt P23443); test: Activity at human p70S6K at 10 uM
[33] = target: D(1A) dopamine receptor (Homo sapiens) (UniProt P21728); test: Activity at human D1 receptor at 10 uM
[34] = Toxicity in patient with advanced solid tumor assessed as anemia at 20 to 240 mg, po administered once daily; type: organism-based; conditions: human, in vivo
[35] = target: C-X-C chemokine receptor type 1 (Homo sapiens) (UniProt P25024); test: Activity at human CXCR1 receptor at 10 uM
Chain of C-X-C chemokine receptor type 1 (Homo sapiens) (P25024 whole entry): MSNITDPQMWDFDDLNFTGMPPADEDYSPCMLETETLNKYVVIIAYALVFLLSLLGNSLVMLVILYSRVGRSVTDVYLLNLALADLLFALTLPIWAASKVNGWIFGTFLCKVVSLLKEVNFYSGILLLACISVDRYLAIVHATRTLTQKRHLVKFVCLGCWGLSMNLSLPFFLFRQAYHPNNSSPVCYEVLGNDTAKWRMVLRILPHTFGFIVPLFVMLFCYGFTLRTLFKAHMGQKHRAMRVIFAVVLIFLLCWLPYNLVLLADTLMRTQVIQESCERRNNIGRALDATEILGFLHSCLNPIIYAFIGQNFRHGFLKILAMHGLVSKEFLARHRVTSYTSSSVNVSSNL

[36] = target: Serine/threonine-protein kinase D1 (Homo sapiens) (UniProt Q15139); test: Activity at human PKCmu at 10 uM
Chain of Serine/threonine-protein kinase D1 (Homo sapiens) (Q15139 whole entry): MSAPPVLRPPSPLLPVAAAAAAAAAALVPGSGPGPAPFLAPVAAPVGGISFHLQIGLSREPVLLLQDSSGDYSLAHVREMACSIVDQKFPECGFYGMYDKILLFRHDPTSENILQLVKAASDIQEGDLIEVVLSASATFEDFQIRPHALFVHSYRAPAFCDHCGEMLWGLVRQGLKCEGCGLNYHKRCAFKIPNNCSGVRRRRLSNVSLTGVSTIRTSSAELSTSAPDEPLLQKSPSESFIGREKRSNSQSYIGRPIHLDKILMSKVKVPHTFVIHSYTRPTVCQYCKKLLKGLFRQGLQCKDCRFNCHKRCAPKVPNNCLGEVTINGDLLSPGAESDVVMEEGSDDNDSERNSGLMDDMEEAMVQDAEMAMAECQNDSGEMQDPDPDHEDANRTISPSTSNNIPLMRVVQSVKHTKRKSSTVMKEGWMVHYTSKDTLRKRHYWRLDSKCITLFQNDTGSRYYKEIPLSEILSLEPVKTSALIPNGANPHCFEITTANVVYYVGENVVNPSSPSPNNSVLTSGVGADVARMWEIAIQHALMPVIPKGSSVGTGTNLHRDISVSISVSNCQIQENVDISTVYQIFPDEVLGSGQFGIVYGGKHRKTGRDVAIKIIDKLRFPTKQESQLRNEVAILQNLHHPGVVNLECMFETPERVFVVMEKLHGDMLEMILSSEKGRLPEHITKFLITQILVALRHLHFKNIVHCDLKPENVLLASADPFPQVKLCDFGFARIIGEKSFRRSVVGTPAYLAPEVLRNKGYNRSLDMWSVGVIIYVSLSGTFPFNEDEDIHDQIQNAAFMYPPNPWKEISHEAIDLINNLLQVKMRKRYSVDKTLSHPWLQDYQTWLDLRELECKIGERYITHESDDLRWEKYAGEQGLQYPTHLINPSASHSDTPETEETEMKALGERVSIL

[37] = target: Mitogen-activated protein kinase 14 (Homo sapiens) (UniProt Q16539); test: Activity at human SAPK2a at 10 uM
[38] = target: Inward rectifier potassium channel 2 (Homo sapiens, UniProt P63252); test: Activity at human Kir2.1 at 10 uM
Mus musculus = test: In vivo inhibition of HIF-2alpha in SCID Beige mouse xenografted with human 786-O cells assessed as reduction in cyclin D1 mRNA expression administered twice daily via oral gavage for 3 days measured 12 hrs post-last dose by qRT-PCR analysis; type: functional, organism-based
[39] = target: Receptor-type tyrosine-protein kinase FLT3 (Homo sapiens) (UniProt P36888); test: Activity at human Flt3 at 10 uM
[40] = target: Alpha-1D adrenergic receptor (Homo sapiens) (UniProt P25100); test: Activity at human alpha1D receptor at 10 uM
[41] = Half life in patient with advanced solid tumor at 40 mg, po administered once daily measured on day 15; type: ADME, organism-based; conditions: human, in vivo
[42] = target: Cannabinoid receptor 2 (Homo sapiens) (UniProt P34972); test: Activity at human CB2 receptor at 10 uM

CS(=O)(=O)c1ccc(Oc2cc(F)cc(C#N)c2)c2c1[C@H](O)[C@H](F)[C@@H]2F [BELZUTIFAN]
clearance [1]: 3.5 mL/min/kg | Activity [2]: inactive | Cmax [3]: 1800 ng/mL | Activity [4]: inactive | Activity [5]: inactive | Activity [6]: inactive | Activity [7]: inactive | AUC(0-t) [8]: 7100 ng·h/mL | Activity [9]: inactive | Activity [10]: inactive | Activity [11]: inactive | Activity [12]: inactive | Activity [13]: inactive | Activity [14]: inactive | Activity [15]: inactive | Vd [16]: 2.9 L/kg | Cmax [17]: 200 ng/mL | Activity [18]: inactive | Activity [19]: inactive | inhibition (INH) (Cytochrome P450 3A4): Not Active | Activity [20]: inactive | Activity [21]: inactive | Activity [22]: inactive | Activity [23]: inactive | Activity [24]: inactive | Activity [25]: inactive | Activity [26]: inactive | half-life [27]: 12.2 h | Activity [28]: inactive | concentration at 24 h [29]: 190 ng/mL | Activity [30]: inactive | Activity [31]: inactive | Activity [32]: inactive | Activity [33]: inactive | Activity [34]: Non-Toxic | Activity [35]: inactive | Activity [36]: inactive | Activity [37]: inactive | Activity [38]: Not Active | inhibition (Mus musculus): Dose-dependent effect | Activity [39]: inactive | Activity [40]: inactive | half-life [41]: 18.8 h | Activity [42]: inactive
